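A five-concentration, 48-hour dose response in 96-well plates underlies each endpoint, interpolated linearly between surrounding concentrations. The concentration for full growth arrest is given as TGI.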
Assays:
Test in all cases: DTP human tumour cell line panel, 48 h
786-0 renal = system: 786-0 renal
A549 NSCLC = system: A549 NSCLC
ACHN renal = system: ACHN renal
BT-549 breast = system: BT-549 breast
CAKI-1 renal = system: CAKI-1 renal
CCRF-CEM leukemia = system: CCRF-CEM leukemia
COLO 205 colon = system: COLO 205 colon
DU-145 prostate = system: DU-145 prostate
EKVX NSCLC = system: EKVX NSCLC
HCC-2998 colon = system: HCC-2998 colon
HCT-116 colon = system: HCT-116 colon
HCT-15 colon = system: HCT-15 colon
HL-60(TB) leukemia = system: HL-60(TB) leukemia
HOP-62 NSCLC = system: HOP-62 NSCLC
HOP-92 NSCLC = system: HOP-92 NSCLC
HS 578T breast = system: HS 578T breast
HT29 colon = system: HT29 colon
IGROV1 ovarian = system: IGROV1 ovarian
K-562 leukemia = system: K-562 leukemia
KM12 colon = system: KM12 colon
LOX IMVI melanoma = system: LOX IMVI melanoma
M14 melanoma = system: M14 melanoma
MALME-3M melanoma = system: MALME-3M melanoma
MCF7 breast = system: MCF7 breast
MDA-MB-231 breast = system: MDA-MB-231 breast
MDA-MB-435 = system: MDA-MB-435
MDA-N = system: MDA-N
MOLT-4 leukemia = system: MOLT-4 leukemia
NCI-H226 lung = system: NCI-H226 lung
NCI-H23 lung = system: NCI-H23 lung
NCI-H460 lung = system: NCI-H460 lung
NCI-H522 lung = system: NCI-H522 lung
NCI/ADR-RES ovarian = system: NCI/ADR-RES ovarian
OVCAR-3 ovarian = system: OVCAR-3 ovarian
OVCAR-4 ovarian = system: OVCAR-4 ovarian
OVCAR-5 ovarian = system: OVCAR-5 ovarian
OVCAR-8 ovarian = system: OVCAR-8 ovarian
PC-3 prostate = system: PC-3 prostate
RPMI-8226 leukemia = system: RPMI-8226 leukemia
RXF 393 renal = system: RXF 393 renal
SF-268 CNS = system: SF-268 CNS
SF-295 CNS = system: SF-295 CNS
SK-MEL-2 melanoma = system: SK-MEL-2 melanoma
SK-MEL-28 melanoma = system: SK-MEL-28 melanoma
SK-MEL-5 melanoma = system: SK-MEL-5 melanoma
SK-OV-3 ovarian = system: SK-OV-3 ovarian
SN12C renal = system: SN12C renal
SNB-19 CNS = system: SNB-19 CNS
SNB-75 CNS = system: SNB-75 CNS
SR leukemia = system: SR leukemia
SW-620 colon = system: SW-620 colon
T-47D breast = system: T-47D breast
TK-10 renal = system: TK-10 renal
U251 CNS = system: U251 CNS
UACC-257 melanoma = system: UACC-257 melanoma
UACC-62 melanoma = system: UACC-62 melanoma
UO-31 renal = system: UO-31 renal

With `COc1cccc(C2c3cc4c(cc3OC(C)(N3CCCC3)C2C)OCO4)c1OC` (configuration not stated) the TGI (786-0 renal) was greater than 100 µM, the TGI (A549 NSCLC) was 35.8 µM and the TGI (ACHN renal) was 31.6 µM. The TGI (BT-549 breast) was 32.6 µM, the TGI (CAKI-1 renal) was 47.4 µM and the TGI (CCRF-CEM leukemia) was 35.7 µM. The TGI (COLO 205 colon) was 24.6 µM, the TGI (DU-145 prostate) was 49.9 µM and the TGI (EKVX NSCLC) was 78.2 µM. The TGI (HCC-2998 colon) was 53.2 µM, the TGI (HCT-116 colon) was 17.7 µM and the TGI (HCT-15 colon) was 30.7 µM. The TGI (HL-60(TB) leukemia) was 22.8 µM, the TGI (HOP-62 NSCLC) was 30.6 µM and the TGI (HOP-92 NSCLC) was 71.2 µM. It also gave a TGI (HS 578T breast) of 52.5 µM, a TGI (HT29 colon) of 22.3 µM and a TGI (IGROV1 ovarian) greater than 100 µM. The TGI (K-562 leukemia) was 53.1 µM, the TGI (KM12 colon) was 23 µM and the TGI (LOX IMVI melanoma) was 27 µM. For the same molecule, the TGI (M14 melanoma) was 45.5 µM, the TGI (MALME-3M melanoma) was 66.5 µM and the TGI (MCF7 breast) was 98.6 µM. It also gave a TGI (MDA-MB-231 breast) of 52.9 µM, a TGI (MDA-MB-435) of 49.3 µM and a TGI (MDA-N) of 34.7 µM. For the same molecule, the TGI (MOLT-4 leukemia) was 27.4 µM, the TGI (NCI-H226 lung) was 58.5 µM and the TGI (NCI-H23 lung) was 44.6 µM. It also gave a TGI (NCI-H460 lung) of 28.4 µM, a TGI (NCI-H522 lung) of 52.3 µM and a TGI (NCI/ADR-RES ovarian) of 76.8 µM. It also gave a TGI (OVCAR-3 ovarian) of 25.4 µM, a TGI (OVCAR-4 ovarian) of 46.1 µM and a TGI (OVCAR-5 ovarian) of 43 µM. For the same molecule, the TGI (OVCAR-8 ovarian) was 98.1 µM, the TGI (PC-3 prostate) was 41.2 µM and the TGI (RPMI-8226 leukemia) was greater than 100 µM. The TGI (RXF 393 renal) was 86.7 µM, the TGI (SF-268 CNS) was 81.3 µM and the TGI (SF-295 CNS) was greater than 100 µM. It also gave a TGI (SK-MEL-2 melanoma) of 27 µM, a TGI (SK-MEL-28 melanoma) greater than 100 µM and a TGI (SK-MEL-5 melanoma) of 28.4 µM. It also gave a TGI (SK-OV-3 ovarian) of 69.6 µM, a TGI (SN12C renal) of 41.6 µM and a TGI (SNB-19 CNS) of 95.5 µM. For the same molecule, the TGI (SNB-75 CNS) was 94.3 µM, the TGI (SR leukemia) was 22.5 µM and the TGI (SW-620 colon) was greater than 100 µM. The TGI (T-47D breast) was 46.6 µM, the TGI (TK-10 renal) was 89.1 µM and the TGI (U251 CNS) was 24.5 µM. For the same molecule, the TGI (UACC-257 melanoma) was 64.1 µM, the TGI (UACC-62 melanoma) was 51.5 µM and the TGI (UO-31 renal) was 37.5 µM.

— PubChem BioAssay (NCI)
